Reference: the supplement of paper PMC10307832

Legend:
Assay in all cases: relative viability (nuclei count vs DMSO), 5 days (fraction); higher = more cells survive
Doxorubicin + Vorinostat = compound: COc1cccc2c1C(=O)c1c(O)c3c(c(O)c1C2=O)C[C@@](O)(C(=O)CO)C[C@@H]3O[C@H]1C[C@H](N)[C@H](O)[C@H](C)O1 [Doxorubicin] + O=C(CCCCCCC(=O)Nc1ccccc1)NO [Vorinostat] (partner 1 µM)
Procedure, shortened: (§1)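 After 5 days of treatment, lung cancer cells in 1536-well plates were fixed and stained in a single step (final 0.05% Triton X-100, 1% formaldehyde, 1 ug/ml Hoechst) and their nuclei counted on 4× images. Treatment had been applied by pin tool the day after seeding as one drug alone or as a fixed anchor-drug dose with five library-drug doses (not always all listed) in √10 steps. Relative viability is the nuclei count of treated wells divided by that of vehicle wells, and values are medians of duplicate plates.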

BAY61-3606 + Crizotinib = compound: COC1=C(C=C(C=C1)C2=CC3=NC=CN3C(=N2)NC4=C(C=CC=N4)C(=O)N)OC [BAY61-3606] + C[C@@H](Oc1cc(-c2cnn(C3CCNCC3)c2)cnc1N)c1c(Cl)ccc(F)c1Cl [Crizotinib] (partner 1 µM)
Procedure, shortened: as §1

Doxorubicin + Tozasertib = compound: COc1cccc2c1C(=O)c1c(O)c3c(c(O)c1C2=O)C[C@@](O)(C(=O)CO)C[C@@H]3O[C@H]1C[C@H](N)[C@H](O)[C@H](C)O1 [Doxorubicin] + Cc1cc(Nc2cc(N3CCN(C)CC3)nc(Sc3ccc(NC(=O)C4CC4)cc3)n2)n[nH]1 [Tozasertib] (partner 0.1 µM)
Procedure, shortened: as §1

BAY61-3606 + Decitabine = compound: COC1=C(C=C(C=C1)C2=CC3=NC=CN3C(=N2)NC4=C(C=CC=N4)C(=O)N)OC [BAY61-3606] + Nc1ncn([C@H]2C[C@H](O)[C@@H](CO)O2)c(=O)n1 [Decitabine] (partner 2 µM)
Procedure, shortened: as §1

| Cell Line | relative viability (Doxorubicin + Vorinostat; first compound 0.001 µM) | relative viability (Doxorubicin + Vorinostat; first compound 0.003162 µM) | relative viability (Doxorubicin + Vorinostat; first compound 0.01 µM) | relative viability (Doxorubicin + Vorinostat; first compound 0.03162 µM) | relative viability (Doxorubicin + Vorinostat; first compound 0.1 µM) | relative viability (BAY61-3606 + Crizotinib; first compound 0.02 µM) | relative viability (BAY61-3606 + Crizotinib; first compound 0.06325 µM) | relative viability (BAY61-3606 + Crizotinib; first compound 0.2 µM) | relative viability (BAY61-3606 + Crizotinib; first compound 0.6325 µM) | relative viability (BAY61-3606 + Crizotinib; first compound 2 µM) | relative viability (Doxorubicin + Tozasertib; first compound 0.001 µM) | relative viability (Doxorubicin + Tozasertib; first compound 0.003162 µM) | relative viability (Doxorubicin + Tozasertib; first compound 0.01 µM) | relative viability (Doxorubicin + Tozasertib; first compound 0.03162 µM) | relative viability (Doxorubicin + Tozasertib; first compound 0.1 µM) | relative viability (BAY61-3606 + Decitabine; first compound 0.02 µM) | relative viability (BAY61-3606 + Decitabine; first compound 0.06325 µM) | relative viability (BAY61-3606 + Decitabine; first compound 0.2 µM) | relative viability (BAY61-3606 + Decitabine; first compound 0.6325 µM) | relative viability (BAY61-3606 + Decitabine; first compound 2 µM) |
| --- | --- | --- | --- | --- | --- | --- | --- | --- | --- | --- | --- | --- | --- | --- | --- | --- | --- | --- | --- | --- |
| NCI-H1975 | 0.731 | 0.735 | 0.678 | 0.679 | 0.531 | 0.921 | 0.947 | 0.907 | 0.888 | 0.585 | 0.745 | 0.711 | 0.664 | 0.303 | 0.178 | 0.394 | 0.416 | 0.438 | 0.421 | 0.271 |
| NCI-H727 | 1.33 | 1.09 |  | 1.13 | 1.19 | 0.855 | 0.706 | 0.992 | 0.925 | 0.738 | 0.697 | 0.513 | 0.697 | 0.636 | 0.661 | 0.8 | 0.8 | 0.947 | 0.981 | 0.895 |
| NCI-H520 | 0.757 | 0.733 | 0.788 | 0.596 | 0.564 | 0.881 | 0.782 | 0.871 | 0.948 | 0.593 | 0.409 | 0.432 | 0.434 | 0.343 | 0.413 | 0.508 | 0.67 | 0.515 | 0.518 | 0.557 |
| NCI-H1355 | 0.604 | 0.602 | 0.631 | 0.599 | 0.625 | 1.08 | 1.04 | 1.05 | 1.07 | 0.81 | 0.632 | 0.508 | 0.52 | 0.443 | 0.598 | 0.391 | 0.377 | 0.389 | 0.359 | 0.361 |
| NCI-H2347 | 0.588 | 0.539 | 0.45 | 0.49 | 0.476 | 0.749 | 0.589 | 0.781 | 0.848 | 0.756 | 0.62 | 0.551 | 0.736 | 0.53 | 0.636 | 0.731 | 0.63 | 0.599 | 0.698 | 0.666 |
| LC-2-ad | 0.699 | 0.714 | 0.624 | 0.637 | 0.664 |  | 0.384 | 0.447 | 0.406 | 0.348 | 0.455 | 0.402 | 0.401 | 0.246 | 0.239 | 0.849 | 0.772 | 0.775 | 0.778 | 0.92 |
| NCI-H838 | 0.783 | 0.737 | 0.714 | 0.544 | 0.435 | 0.82 | 0.661 | 0.814 | 0.866 | 0.398 | 0.281 | 0.306 | 0.261 | 0.274 | 0.226 | 0.448 | 0.508 | 0.47 | 0.454 | 0.393 |
| NCI-H358 | 0.838 | 0.679 | 0.407 | 0.138 | 0.101 | 0.505 | 0.342 | 0.373 | 0.294 | 0.162 | 0.107 | 0.0976 | 0.0897 | 0.1 | 0.0933 | 0.226 | 0.228 | 0.241 | 0.228 | 0.14 |
| NCI-H2087 | 0.327 | 1.08 | 0.746 | 0.75 | 0.677 | 0.585 | 0.931 | 0.818 | 0.863 | 0.619 |  | 0.278 | 0.248 | 0.165 | 0.156 | 0.352 | 0.291 | 0.295 | 0.269 | 0.229 |
| NCI-H596 | 0.533 | 0.594 | 0.641 | 0.605 | 0.632 | 0.969 | 1.01 | 1.08 | 1.19 | 0.931 | 0.857 | 1.08 | 0.943 | 0.806 | 0.859 | 1.06 | 0.967 | 1.14 | 0.965 | 1.08 |
| RERF-LC-KJ | 0.672 | 0.721 | 0.632 | 0.469 | 0.487 | 0.826 | 0.777 | 0.817 | 0.819 | 0.785 | 0.538 | 0.406 | 0.398 | 0.233 | 0.233 | 0.766 | 0.717 | 0.654 | 0.659 | 0.556 |
| NCI-H647 | 0.546 | 0.671 | 0.387 | 0.132 | 0.189 | 1.09 | 1.1 | 0.963 | 1.03 | 0.506 | 0.305 | 0.181 | 0.431 | 0.18 | 0.125 | 0.382 | 0.433 | 0.391 | 0.416 | 0.256 |
| LU99A | 0.518 | 0.474 | 0.442 | 0.409 | 0.519 | 0.562 | 0.468 | 0.555 | 0.484 | 0.305 | 0.298 | 0.28 | 0.287 | 0.281 | 0.309 | 0.926 | 1.01 | 0.966 | 0.804 | 0.559 |
| NCI-H460 | 0.654 | 0.639 | 0.492 | 0.063 | 0.0329 | 0.952 | 0.72 | 0.913 | 0.846 | 0.182 | 0.419 | 0.388 | 0.264 | 0.185 | 0.165 | 0.508 | 0.572 | 0.43 | 0.448 | 0.382 |
| NCI-H650 | 0.553 | 0.505 | 0.422 | 0.355 | 0.432 | 0.725 | 0.331 | 0.701 | 0.669 | 0.47 | 0.908 | 0.736 | 0.784 | 0.582 | 0.63 | 0.358 | 0.302 | 0.338 | 0.385 | 0.301 |
| PC-14 | 0.655 | 0.781 | 0.709 | 0.182 | 0.0946 | 0.855 | 0.803 | 0.865 | 0.974 | 0.757 | 0.598 | 0.573 | 0.599 | 0.59 | 0.487 |  | 0.244 | 0.246 | 0.203 | 0.226 |
